According to paper PMC10287695, “Non-covalent inhibitors of thioredoxin glutathione reductase with schistosomicidal activity in vivo” (Nature Communications, 2023):
Several values for one entry are separate records, joined by “and”; a condition that tells them apart may be missing. Identical values can stand only once. Like-named read-outs stand apart in the source and are kept apart here.

Key:
TGR = biological target: T1, TGR (Schistosoma mansoni, UniProt Q962Y6, X597U); test: Superoxide production (pyrogallol red); assay type: biochemical, S. mansoni; conditions: replicates
T1 construct: made in house
Experimental: The production of superoxide by TGR was determined by monitoring reaction of superoxide with pyrogallol red[80]. Briefly, a 1 ml reaction mix (500 nM TGR, 100 µM NADPH, and 20–50 µM inhibitor) was incubated at room temperature for 30 min for fast inhibitors, or 2 h for slow inhibitors. For irreversible inhibitor controls TRi-1 (synthesized in house as reported[45]), Stattic (Cayman Chemical), and AF (Cayman Chemical), the samples were desalted using a Zeba spin desalting column. 100 µL of sample was combined with pyrogallol buffer with and without superoxide dismutase (SOD) (50 µM pyrogallol red, 300 µM NADPH; ± 10 units SOD). The reaction was measured at A340 and A540 simultaneously for 2 h.

BmTrxR = BmTrxR (Brugia malayi, UniProt A0A1I9G0T9); test: B. malayi TrxR enzyme inhibition; assay type: biochemical
Experimental: Recombinant TGR, human TrxR1, B. malayi (Bm)TrxR and human GR proteins were expressed and purified as described[20],[69],[79]. The codon optimized sequence for P. falciparum (PfTrxR, https://www.ncbi.nlm.nih.gov/protein/CAA60574.1/) with an N-terminal 6-His tag was synthesized and inserted into pET15b (GenScript) and expressed in BL21 (DE3) cells and purified as described for human GR[20]. […] The reaction was started with addition of an equal volume of DTNB (6 mM) and NADPH (100 µM) and the increase in A412 during the first 3 min was recorded. […] Activity was initiated with the addition of 1 mM GSSG and 100 μM NADPH and initial rates of NADPH oxidation were monitored at 340 nm. The reactions were done in triplicate. The IC50 was calculated in GraphPad Prism.

PfTrxR = biological target: T2, PfTrxR (Plasmodium falciparum, UniProt Q25861); test: P. falciparum TrxR enzyme inhibition; assay type: biochemical; conditions: for PfTrxR % inhibition at 50 µM: the highest concentration tested
T2 construct: 6-His (N); made in house; host or cells: E. coli BL21 (DE3)
T2 sequence (Q25861 1-541): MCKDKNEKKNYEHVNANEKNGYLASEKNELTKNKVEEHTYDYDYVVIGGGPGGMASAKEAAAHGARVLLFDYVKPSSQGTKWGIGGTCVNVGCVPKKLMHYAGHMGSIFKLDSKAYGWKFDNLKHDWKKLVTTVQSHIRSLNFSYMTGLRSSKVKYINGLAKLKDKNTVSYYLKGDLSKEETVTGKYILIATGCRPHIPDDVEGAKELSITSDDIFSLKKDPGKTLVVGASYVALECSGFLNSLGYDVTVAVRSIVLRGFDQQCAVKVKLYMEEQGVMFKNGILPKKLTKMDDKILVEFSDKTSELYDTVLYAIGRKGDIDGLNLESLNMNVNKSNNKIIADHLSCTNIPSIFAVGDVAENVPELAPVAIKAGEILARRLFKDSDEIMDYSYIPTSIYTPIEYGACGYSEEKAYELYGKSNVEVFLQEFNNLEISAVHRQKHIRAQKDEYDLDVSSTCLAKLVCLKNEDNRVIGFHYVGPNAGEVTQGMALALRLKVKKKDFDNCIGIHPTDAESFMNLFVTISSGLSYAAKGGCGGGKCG
Experimental: Recombinant TGR, human TrxR1, B. malayi (Bm)TrxR and human GR proteins were expressed and purified as described[20],[69],[79]. The codon optimized sequence for P. falciparum (PfTrxR, https://www.ncbi.nlm.nih.gov/protein/CAA60574.1/) with an N-terminal 6-His tag was synthesized and inserted into pET15b (GenScript) and expressed in BL21 (DE3) cells and purified as described for human GR[20]. TGR and TrxR enzyme inhibition assays were performed in triplicate at 25 °C as described[20] in 0.1 M potassium phosphate (pH 7.4), 10 mM EDTA, 100 µM NADPH and 0.01% Tween-20. TGR, human TrxR1 and BmTrxR (all at 4 nM) and PfTrxR (50 nM) were preincubated with the compounds for 15 min. The reaction was started with addition of an equal volume of DTNB (6 mM) and NADPH (100 µM) and the increase in A412 during the first 3 min was recorded. […] The reaction was preincubated for 15 min. Activity was initiated with the addition of 1 mM GSSG and 100 μM NADPH and initial rates of NADPH oxidation were monitored at 340 nm. The reactions were done in triplicate. The IC50 was calculated in GraphPad Prism.

[1] = system: S. mansoni juvenile worms in mice; test: Schistosomicidal efficacy in infected mice, juvenile worms (21 d.p.i.); assay type: in vivo; conditions: for Egg burden, Treated, individual mice / Worm burden, Treated, individual mice: Juvenile worm; for Egg burden, Treated, individual mice: eggs per 50 mg liver (Fig. 6); for decrease in egg burden / decrease in worm burden: mice
Experimental: To assess the efficacy of the compounds in vivo against juvenile and adult worms, five female Swiss-Webster mice were randomly assigned for the control and experiment groups using a randomization tool embedded in GraphPad Prism. Mice were percutaneously exposed for 1 h to about 80 S. mansoni cercariae. Three- and six-weeks post infection, respectively, for juvenile and adult worms, mice were treated depending on their weight with formulations of the compounds, while the control mice received only the vehicle. Compounds were formulated with 10% DMSO and 10% Tween-80, and vortexed to obtain a uniform mixture. The mixture was sonicated twice for 5 min each time using a digital ultrasonic cleaner heated to 50 °C. Sodium chloride 0.9% (80% normal saline) was added to the mixture, briefly vortexed and sonicated one more time using the same conditions as previous. The investigators were blinded by which group of mice received a treatment and the vehicle, as injection was done by technicians from the Comparative Research Center of Rush University Medical Center. Using a 26 G, 3/8 in intradermal bevel needle, each mouse was administered intraperitoneally with 100 µl of the formulated compound suspension at 50 mg/kg, 100 mg/kg and 200 mg/kg. Mice treated three weeks post infection for juvenile worms were euthanized three weeks post treatment and mice treated six weeks post infection were euthanized one week post treatment with 0.018 ml of Euthasol and 5.85 mg/ml heparin and perfused. The mesenteric and hepatic portal veins of the mice were carefully scanned under the microscope to extract any remaining S. mansoni adult worms and worm burdens were determined. Egg burden was determined by weighing 50 mg of liver tissue from each of treated and control mice. The liver tissues were digested with 5% KOH at 37 °C overnight and washed twice with PBS. The number of eggs per 50 mg of liver tissue was determined using a Keyence BZ-X800 microscope using the egg autofluorescence.

[2] = second of the two columns per substance (condition not given)
[3] = BmTrxR, 10 µM compound, mean of 3 replicates, read-out: % inhibition
[4] = BmTrxR, 25 µM compound, mean of 3 replicates, read-out: % inhibition
[5] = BmTrxR, 50 µM compound, mean of 3 replicates, read-out: % inhibition
[6] = 2 x 100 mg/kg at 21 d.p.i. (juvenile worms)
[7] = read-out: BmTrxR % inhibition at 50 µM, 50 µM, the highest concentration tested
[8] = 1 x 100 mg/kg, listed as 8VP101
[9] = 1 x 100 mg/kg at 21 d.p.i. (juvenile worms)
[10] = 50 µM, the highest concentration tested
[11] = read-out: PfTrxR % inhibition at 50 µM
[12] = 2 x 100 mg/kg, listed as 8VP192

Row | SMILES | Superoxide production, Pyrogallol red consumption monitored ΔA540 (TGR; condition not given) | Superoxide production, Pyrogallol red consumption monitored ΔA540 (TGR; [2]) | inhibition at 10 µM (BmTrxR; [3]) | inhibition at 25 µM (BmTrxR; [4]) | inhibition at 50 µM (BmTrxR; [5]) | PfTrxR % inhibition at 50 µM (PfTrxR) | inhibition at 50 µM (BmTrxR; [7]) | inhibition at 10 µM (PfTrxR) | inhibition at 25 µM (PfTrxR) | inhibition at 50 µM (PfTrxR) | inhibition at 50 µM (PfTrxR; [11]) | other results
1 | CC(=O)OC[C@H]1O[C@@H]([S-])[C@H](OC(C)=O)[C@@H](OC(C)=O)[C@@H]1OC(C)=O.CCP(CC)CC.[Au+] [AF, auranofin, reference compound] | -0.0001303 and -1.372e-5 | -0.0001254 and 0.0001668 |  |  |  |  |  |  |  |  |  | 
2 | Cc1oc(-c2ccc3c(c2)OCO3)nc1CN[C@@H]1C[C@@H]2C[C@H]([C@H]1C)C2(C)C [Compound 1] | -0.0003735 and -0.0003395 and -0.0002315 | -9.411e-5 and -9.234e-5 and -8.721e-5 | 22.5% | 40.6% | 77.5% | n.i. |  |  |  |  |  | IC50 (BmTrxR): 37 ± 3.04 µM; inhibition at 10 µM (PfTrxR; PfTrxR, 10 µM compound, mean of 3 replicates, read-out: % inhibition): -2.06%; inhibition at 25 µM (PfTrxR; PfTrxR, 25 µM compound, mean of 3 replicates, read-out: % inhibition): -2.16%; inhibition at 50 µM (PfTrxR; PfTrxR, 50 µM compound, mean of 3 replicates, read-out: % inhibition): -1.29%; Egg burden, Treated, individual mice ([1]; 2 x 100 mg/kg, listed as 8VP70): 1567 and 1683 and 1698 and 1583 and 1670; Worm burden, Treated, individual mice ([1]; 2 x 100 mg/kg, listed as 8VP70): 21 and 22 and 19 and 20; decrease in egg burden [1, 6]: 31%; decrease in worm burden [1, 6]: 28.2% and 28%
3 | CCc1ccccc1-c1nc(CN[C@@H]2C[C@@H]3C[C@H]([C@H]2C)C3(C)C)c(C)o1 [Compound 2] |  |  | 0.63% | 5.59% | 12.9% | n.i. | 13% | -8.06% | -45.1% | -32.7% |  | Egg burden, Treated, individual mice [1, 8]: 986 and 1201 and 968 and 1001 and 988; Worm burden, Treated, individual mice [1, 8]: 12 and 13 and 11 and 8; ED50 ([1]; Schistosoma mansoni, 504 h, based on the single dose tested, 21 d.p.i., read-out: estimated ED50 against juvenile worms): < 100 mg/kg; decrease in egg burden [1, 9]: 56.7% and 57%; decrease in worm burden [1, 9]: 61.3% and 61% and > 60%
4 | Cc1oc(-c2ccccc2)nc1CN[C@@H]1C[C@@H]2C[C@H]([C@H]1C)C2(C)C [Compound 3] |  |  |  |  |  |  |  |  |  |  | 12% | inhibition at 10 µM (BmTrxR): -15.1%; inhibition at 25 µM (BmTrxR): -10.6%; inhibition at 50 µM (BmTrxR): -20.9%; BmTrxR % inhibition at 50 µM (BmTrxR; [10]): n.i.
5 | Cc1oc(C2CCCCC2)nc1CN[C@@H]1C[C@@H]2C[C@H]([C@H]1C)C2(C)C [Compound 4] | -0.0003594 and -0.0003266 and -0.0002925 | -3.468e-5 and -5.202e-5 | -0.192% | 0.661% | 0.575% |  |  | 1.8% | 4.57% | 18.1% | 18% | BmTrxR % inhibition at 50 µM (BmTrxR; [10]): n.i.
6 | Cc1oc(-c2ccc3ccccc3c2)nc1CNC1CCCCCC1 [Compound 5] |  |  | -0.384% | 3.27% | 9.07% | n.i. | 9% | -1.11% | -0.0146% | -1.37% |  | 
7 | C#CCN(Cc1nc(-c2ccccc2)oc1C)[C@@H]1C[C@@H]2C[C@H]([C@H]1C)C2(C)C [Compound 6] | -0.0001397 and -0.0001399 | -5.466e-5 and -1.08e-5 and -2.977e-5 |  |  |  |  |  |  |  |  |  | Egg burden, Treated, individual mice [1, 12]: 2214 and 2212 and 2241 and 2153 and 2264; Worm burden, Treated, individual mice [1, 12]: 28 and 25 and 23 and 18 and 26; decrease in egg burden [1, 6]: 6.8% and 7%; decrease in worm burden [1, 6]: 15.5% and 16%
8 | Cc1oc(C2CCCCC2)nc1C(=O)N[C@@H]1C[C@@H]2C[C@H]([C@H]1C)C2(C)C [Compound 7] | -0.0001477 and -0.0001374 and -0.0001423 | -5.501e-5 and -2.739e-5 and -2.749e-5 | -2.13% | -0.458% | -0.00455% |  | 11% | -0.315% | 4.13% | 10.8% |  | 
9 | C[C@@H]1[C@H]2C[C@@H](C[C@H]1NCc1nc3ccccc3n1C1CCCCCC1)C2(C)C [Compound 8] |  |  | 17.7% | 43.3% | 68.2% |  | 67.7% | -0.482% | -0.643% | -0.523% |  | 
10 | CC1C(NCc2cn(C3OCC(O)C(O)C3O)c3ccccc23)CC2CC1C2(C)C (stereo not shown) [Compound 9] |  |  | 47.6% | 70.1% | 83.3% |  |  | 6.78% | 8.79% | 16.2% | 16% | IC50 (BmTrxR): 13.7 ± 1.03 µM
